The values that follow come from patent publication US5589335A, “Hybridization promotion reagents” (Amoco Corporation, priority 1994, dated 1996).

Counter-ions that a name gives are not always drawn.

The target of data set [1] is Proteinase K (Parengyodontium album, UniProt P06873). As to the kind of experiment: Proteinase K activity (digestion of 14C-labeled BSA). The format is biochemical. Here is the method:
Prior to empirical determination, it could not be predicted whether addition of the GuSCN to TMA.TFA would produce a reagent with the capability of controlling nucleases. The extent of Proteinase K activity in GT^3 was assayed by determining its ability to digest (solubilize) ^14 C-labeled bovine serum albumin (BSA).
These experiments were done twice, and the percentages below are the averages of the two experiments; the numbers in parentheses are the experimental variations.

Data set [2] addresses T1, RNase A (Bos taurus, UniProt P61823).
T1 sequence (P61823 27-150): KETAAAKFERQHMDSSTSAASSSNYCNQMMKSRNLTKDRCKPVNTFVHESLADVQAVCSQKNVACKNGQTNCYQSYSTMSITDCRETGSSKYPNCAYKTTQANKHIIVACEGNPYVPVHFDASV
As to the kind of experiment: RNase A inhibition (capturable rRNA target complex). The format is biochemical. The conditions noted are these: for % RNase inhibition: 37° C., 15 minutes; for RNase inactivated: RNase 0.125 μg/ml, 15 min. The protocol:
Though the ability of a hybridization medium to support protease activity is desirable, an equally (or more) important property is the capability of inhibiting nucleases, especially ribonucleases. […] The experimental protocol was a follows:
1) A target complex was prepared by hybridizing target rRNA (from Salmonella extracts), capture probe (dA-676), and ^32 P-labeled 3'-Riboprobe (as earlier described).
2) The target complex was diluted into each of the above four test reagents.
3) RNase A solutions of various concentrations (0-250 μg/ml in […] phosphate buffer pH7) were prepared. Into tubes of the diluted target complex was added RNase A, to one of the final concentrations noted in Table 3 below. The control comprised only phosphate buffer diluent. The mixtures were incubated at 37° C. for 15 minutes. Proteinase K was added to a final concentration of 1.25 mg/ml to stop the nuclease activity.
4) Tailed probes and hybridized complexes were captured on magnetic beads (as previously described), which were washed and counted. The level of RNase inhibition was calculated as follows. [formula]

Data set [3] in a line: Reagent stability. The format is physicochemical. The protocol: TMA.TFA was prepared by combining equimolar amounts of concentrated Trifluoroacetic acid (Sigma Chemical Co. or Pierce Chemical Co.) and TMA.OH (Sigma Chemical Co. or Southwestern Analytical Chemicals, Inc.) and buffering it with 0.1M phosphate, 0.1M borate, 0.05 mM EDTA (phosphoric acid, boric acid, and EDTA (free acid), neutralized with TMA.OH). Buffered TMA.TFA remained at a constant pH for at least 1 year and its refractive index indicated a loss of only 2-3% of the solutes over the same period.
TMA.TCA is ideally prepared by neutralizing highly concentrated TCA (~9.3M, or ~1.5 g/ml) with TMA.OH. […] This is ideally avoided since the efficiency of hybridization falls as the pH becomes less neutral. […] From the mass, volume and concentration of starting materials, and the volume of the final solution, the nominal concentration of the final product was calculated to be about 3M.

Sequence of Proteinase K (P06873 106-384): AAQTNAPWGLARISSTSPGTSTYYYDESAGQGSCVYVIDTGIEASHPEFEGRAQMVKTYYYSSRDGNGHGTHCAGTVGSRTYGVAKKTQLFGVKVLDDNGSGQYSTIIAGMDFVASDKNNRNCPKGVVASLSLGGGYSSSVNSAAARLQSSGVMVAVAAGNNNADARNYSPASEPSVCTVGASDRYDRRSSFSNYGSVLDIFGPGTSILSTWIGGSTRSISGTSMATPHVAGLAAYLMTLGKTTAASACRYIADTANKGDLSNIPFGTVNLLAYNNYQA

In the case of `N=C(N)N` [GuSCN, Guanidinium thiocyanate], the “% BSA solubilized” value in data set [1] (Proteinase K in reagent) is listed as 41% (+/-10%). The “half-life of Proteinase K activity” value in data set [1] (incubation at 37° C. in reagent) is recorded as “less than an hour”. In addition, the “% RNase inhibition” value in data set [2] (RNase A 0.00 ug/ml), in data set [2] (RNase A 0.13 ug/ml), in data set [2] (RNase A 1.25 ug/ml), in data set [2] (RNase A 4.17 ug/ml) and in data set [2] (RNase A 12.50 ug/ml) was 100% each time.

On to `C[N+](C)(C)C` [TMA.TFA, Tetramethyammonium:Trifluoroacetate], for which the “RNase A inhibition” value in data set [2] is listed as “relatively ineffective in inactivating RNase”. The values for the RNase inactivated in data set [2] (with Proteinase K 2.5 mg/ml) and in data set [2] (without the protease) were 92% and 73%, respectively. Also, the “time at constant pH” value in data set [3] (buffered solution) is on record as “at least 1 year”.

Take `C[N+](C)(C)C` [TMA.TCA, Tetramethyammonium:Trichloroacetate]: in data set [1], the “Proteinase K activity in reagent” value was “advantageously active”. Moreover, the pH stability result in data set [3] (buffered with phosphate (0.1M) and borate (0.1M)) is listed as “at least one month”.
